# Measurements from patent US20120115895A1, “TRICYCLIC INDOLE-DERIVED SPIRO DERIVATIVES AS CRTH2 MODULATORS” (Merck Serono S.A., priority 2009, published 2012).
# Columns and labels:
# CRTH2 [1] = target: T1, CRTH2 (Homo sapiens, UniProt Q9Y5Y4); assay: Radioligand binding Scintillation Proximity Assay ([3H]PGD2, hCRTH2-CHO cell membranes); design: host or cells: CHO cells
# T1 sequence (Q9Y5Y4 1-395): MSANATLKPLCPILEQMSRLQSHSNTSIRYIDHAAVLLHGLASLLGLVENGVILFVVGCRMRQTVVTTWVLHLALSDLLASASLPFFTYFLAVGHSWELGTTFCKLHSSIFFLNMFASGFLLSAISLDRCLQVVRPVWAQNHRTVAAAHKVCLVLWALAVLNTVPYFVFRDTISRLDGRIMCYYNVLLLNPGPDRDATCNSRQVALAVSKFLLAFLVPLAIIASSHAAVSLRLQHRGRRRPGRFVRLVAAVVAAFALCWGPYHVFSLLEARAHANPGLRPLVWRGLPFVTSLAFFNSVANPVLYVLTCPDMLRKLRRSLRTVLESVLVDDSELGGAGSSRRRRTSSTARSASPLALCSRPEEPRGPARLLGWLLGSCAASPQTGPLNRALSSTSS
# Description: Adherent CHO cells expressing hCRTH2 (Euroscreen, Belgium) were cultured in 225 cm2 cell culture flasks (Corning, USA) in 30 ml of medium. After two rinses of phosphate buffered saline (PBS), cells were harvested in 10 ml of PBS containing 1 mM EDTA, centrifuged at 500×g for 5 min at 4° C. and frozen at −80° C. The pellet was re-suspended in 50 mM Tris-HCl, pH 7.4, 2 mM EDTA, 250 mM Sucrose, containing protease inhibitor cocktail tablets, (Complete EDTA-free, Roche, Germany) and incubated 30 min at 4° C. Cells were disrupted by nitrogen cavitation (Parr Instruments, USA) at 4° C. (800 p.s.i. for 30 min), and centrifuged at 500×g for 10 min at 4° C. Pellet containing nuclei and cellular debris was discarded and supernatant was centrifuged 60 min at 4° C. at 45000×g. Membrane pellet was re-suspended in storage buffer (10 mM HEPES/KOH pH 7.4, 1 mM EDTA, 250 mM sucrose, protease inhibitor cocktail tablets) using Dounce homogenization and frozen in liquid nitrogen, and stored at −80° C.
# The inhibitory activity can be investigated by a radioligand binding Scintillation Proximity Assay (SPA) (Sawyer et al., Br. J. Pharmocol 2002, 137, 1163-72). The SPA radioligand binding assay was performed at room temperature in binding buffer (10 mM HEPES/KOH pH 7.4, 10 mM MnC12, with protease inhibitor cocktail tablets), containing 1.5 nM [3H]PGD2 (Perkin Elmer), 10-50 μg/ml of hCRTH2—CHO cell membrane protein and 2 mg/ml of Wheat-germ agglutinin Scintillation Proximity Assay beads (RPNQ0001, GE-Healthcare) in a final volume of 100 μl in 96 well plates (Corning, USA). Non-specific binding was determined in the presence of 10 μM PGD2 (Cayman, USA). Competing Compounds of Formula (I) were diluted in dimethylsulphoxide so that the total volume of dimethylsulfoxide was kept constant at 1% dimethylsulphoxide (Me2SO). Serial dilutions of 100 μM to 100 pM were prepared and 10 μl each of the compounds of Formula (I) stock solutions were added to the binding assay reagents and incubated for 90 min with agitation at room temperature. Binding activity was determined by using a 1450 Micro-beta scintillation counter (Wallac, UK).
# [2] = In vivo pharmacokinetic evaluation in rat; design: species or system Sprague Dawley male rats; conditions: rats
# Description: (§1) In order to study the pharmacokinetic (PK) profile of test compounds in vivo, Sprague Dawley male rats or C57BL/6 female mice were dosed intravenously or after oral gavage. For both species, test compounds were dosed in solution at 1 mg/kg for i.v. route (10% ethanol, 10% N,N-dimethylacetamide, 30% propylene glycol, 50% water, v/v) and in suspension at 5 mg/kg (0.5% carboxymethylcellulose suspension, containing 0.25% Tween 20 in water) for oral gavage. PK profile in rat was obtained from 3 animals per dosing route and mouse PK profile was determined from 3 animals for each time points. The volume of administration was 2 mL/kg for i.v. dosing in both species and either 5 mL/kg (rat) or 10 mL/kg (mouse) for oral gavage. Blood samples (100 µL/time point) were collected at 0.083 (5 min), 0.25, 0.5, 1, 4, 7 and 24 hours post-dose for i.v. dosing, and at 0.5, 1, 4, 7 and 24 h for oral dosing, into heparin-Li+ containing tubes. For rats, all blood samples were collected trough a catheter in the carotid artery (placed in the artery the day before the experiment), under light isoflurane anesthesia, and stored on ice until centrifugation and plasma isolation. For mouse, blood samples were collected from intracardiac puncture at sacrifice at each time point and processed as described above for the rat. Plasma samples were stored frozen until analysis (−20° C. to −70° C.). For bioanalysis, samples were processed by protein precipitation (acetonitrile, formic acid 0.1%, addition of 3 volumes) after addition of one internal standard and analysed using a sensitive and selective LC/MS/MS method. An aliquot of the resulting supernatant was subject to LC/MS/MS analysis using a reverse phase column (Waters Xterra, C8, (3.5 μm particle size, 2.1×50 mm) and a short gradient (1 min) from (Solvent A) 85% water, 15% acetonitrile and 0.1% formic acid to (Solvent B) 90% acetonitrile, 10% water and 0.1% formic acid followed by isocratic conditions of Solvent B for 3.5 min at 0.4 mL/min. Column effluent was monitored using a Sciex API 4000 triple quadrupole mass spectrometer with a Turbo V electrospray ion source. Unknown concentrations of test compounds were determined using a calibration curve ranging from 1 to 3000 ng/mL.
# CRTH2 [3] = target: T1, CRTH2; assay: PGD2-induced eosinophil cell shape assay in human whole blood; assay type: cell-based; design: endogenous in cells; host or cells: eosinophils in human whole blood from healthy volunteers; conditions: 10 nM PGD2
# Description: The test compounds were diluted in dimethylsulphoxide so that the total volume of dimethylsulfoxide was kept constant at 2% dimethylsulphoxide (Me2SO). Serial dilutions of 200 μM to 0.09 μM were prepared. Samples of 90 μl of human blood from healthy volunteers (Centre de Transfusion Sanguine de Genève) were pre-incubated in polypropylene Falcon tubes (BD 352063) for 20 minutes in a water bath at 37° C. with 10 μl of diluted compounds. For CRTH2 activation, 100 μl PGD2 (Cayman 12010) at 20 nM was added (10 nM final) to each tube and cells were maintained at 37° C. For negative control cells were treated with PBS. After 10 minutes, cell activation was stopped with 120 μl Formaldehyde 10% (4% final, Fluka 41650) and cells were rested for 10 minutes at room temperature. Fixed cells were transferred into polypropylene tubes and then treated for 1 hour in a water bath at 37° C. with 2 ml of Triton—Surfact-Amps X-100 (Pierce 28314) at 0.166% (0.13% Triton final). After several washes with PBS (red cells lysed progressively during washes, two washes are necessary), cells were analyzed by flow cytometry on a FACSCalibur.
# [4] = In vivo pharmacokinetic evaluation in mouse; design: species or system C57BL/6 female mice; conditions: mice
# Description: as §1
# [5] = 1.5 nM [3H]PGD2, hCRTH2-CHO membranes, SPA, read-out: IC50 binding
# [6] = oral bioavailability, 5 mg/kg po, 1 mg/kg i.v.
IC50 (CRTH2 [1]; [5]) [µM],SMILES,further results
0.123,"CN1C(=O)N(Cc2cn(-c3ccccc3)nc2-c2ccccc2)C(=O)C12C(=O)N(CC(=O)O)c1ccc(Cl)cc12 (stereo not drawn) [Example 6, [5′-chloro-1-[(1,3-diphenyl-1H-pyrazol-4-yl)methyl]-3-methyl-2,2′,5-trioxospiro[imidazolidine-4,3′-indol]1′(2′H)-yl]acetic acid]",
0.148,"Cc1onc(-c2ccccc2)c1CN1C(=O)N(C)C2(C1=O)C(=O)N(CC(=O)O)c1ccc(Cl)cc12 (stereo not drawn) [Example 7, [5′-chloro-3-methyl-1-[(5-methyl-3-phenylisoxazol-4-yl)methyl]-2,2′,5-trioxospiro[imidazolidine-4,3′-indol]-1′(2′H)-yl]acetic acid]",
0.044,"CN1C(=O)N(Cc2csc(-c3ccccc3)n2)C(=O)C12C(=O)N(CC(=O)O)c1ccc(Cl)cc12 (stereo not drawn) [Example 8, [5′-chloro-3-methyl-2,2′,5-trioxo-1-[(2-phenyl-1,3-thiazol-4-yl)methyl] Spiro[imidazolidine-4,3′-indol]-1′(2′H)-yl]acetic acid]",
0.945,"CN1C(=O)N(Cc2nc3ccccc3s2)C(=O)C12C(=O)N(CC(=O)O)c1ccc(Cl)cc12 (stereo not drawn) [Example 11, [1-(1,3-benzothiazol-2-ylmethyl)-5′-chloro-3-methyl-2,2′,5-trioxospiro[imidazolidine-4,3′-indol]-1′(2′H)-yl]acetic acid]",
0.74,"CN1C(=O)N(CCc2ccccc2Cl)C(=O)C12C(=O)N(CC(=O)O)c1ccc(Cl)cc12 (stereo not drawn) [Example 12, [5′-chloro-1-[2-(2-chlorophenyl)ethyl]-3-methyl-2,2′,5-trioxospiro[imidazolidine-4,3′-indol]-1′(2′H)-yl]acetic acid]",

# The next lines start with the compound.
SMILES,IC50 (CRTH2 [1]; [5]) [µM],further results
"CCCN1C(=O)N(Cc2cc(Cl)ccc2F)C(=O)C12C(=O)N(CC(=O)O)c1ccc(Cl)cc12 (single isomer, unassigned) [Example 4]",0.144,
"O=C(O)CN1C(=O)C2(NC(=O)N(Cc3cc(Cl)ccc3F)C2=O)c2cc(Cl)ccc21 (single isomer, unassigned; (+)) [(+)-Enantiomer, (+)-[5′-Chloro-1-(5-chloro-2-fluorobenzyl)-2,2′,5-trioxospiro[imidazolidine-4,3′-indol]-1′(2′H)-yl]acetic acid, reference compound]",,"IC50 (CRTH2 [1]; comparison table with (+)-Enantiomer, read-out: Binding IC50): 0.021 µM; activity on DP2 (CRTH2 [1]; first eluting enantiomer compared with second eluting enantiomer): better activity; Cmax ([2]; male, Sprague Dawley, rat, plasma, po, 5 mg/Kg): 151 ng/mL; Fz in rats [2, 6]: 5.3%; IC50 (CRTH2 [3]): 0.05 µM; Cmax ([4]; female, C57BL/6, mouse, plasma, po, 5 mg/Kg): 113 ng/mL; Fz in mice [4, 6]: 6%"
"CCN1C(=O)N(Cc2cc(Cl)ccc2F)C(=O)C12C(=O)N(CC(=O)O)c1ccc(Cl)cc12 (single isomer, unassigned; (+)) [Example 3, [(+)-5′-chloro-1-(5-chloro-2-fluorobenzyl)-3-ethyl-2,2′,5-trioxospiro[imidazolidine-4,3′-indol]-1′(2′H)-yl]acetic acid]",0.336,
"CN1C(=O)N(Cc2cc(Cl)ccc2F)C(=O)C12C(=O)N(CC(=O)O)c1ccc(Cl)cc12 (stereo not drawn) [Example 1, [5′-chloro-1-(5-chloro-2-fluorobenzyl)-3-methyl-2,2′,5-trioxospiro[imidazolidine-4,3′-indol]-1′(2′H)-yl]acetic acid]",0.062,
"CC(C)c1nc(CN2C(=O)N(C)C3(C2=O)C(=O)N(CC(=O)O)c2ccc(Cl)cc23)cs1 (stereo not drawn) [Example 5, [5′-chloro-1-[(2-isopropyl-1,3-thiazol-4-yl)methyl]-3-methyl-2,2′,5-trioxospiro[imidazolidine-4,3′-indol]-1′(2′H)-yl]acetic acid]",0.628,
"COc1c(C)cnc(CN2C(=O)N(C)C3(C2=O)C(=O)N(CC(=O)O)c2ccc(Cl)cc23)c1C (stereo not drawn) [Example 9, [5′-chloro-1-[(4-methoxy-3,5-dimethylpyridin-2-yl)methyl]-3-methyl-2,2′,5-trioxospiro[imidazolidine-4,3′-indol]-1′(2′H)-yl]acetic acid]",0.363,
"CN1C(=O)N(Cc2cc(F)ccc2F)C(=O)C12C(=O)N(CC(=O)O)c1ccc(Cl)cc12 (stereo not drawn) [Example 10, [5′-chloro-1-(2,5-difluorobenzyl)-3-methyl-2,2′,5-trioxospiro[imidazolidine-4,3′-indol]-1′(2′H)-yl]acetic acid]",0.498,
"CN1C(=O)N(CCc2cccc(F)c2)C(=O)C12C(=O)N(CC(=O)O)c1ccc(Cl)cc12 (stereo not drawn) [Example 13, [15′-chloro-1-[2-(3-fluorophenyl)ethyl]-3-methyl-2,2′,5-trioxospiro[imidazolidine-4,3′-indol]-1′(2′H)-yl]acetic acid]",0.916,
"CN1C(=O)N(CCc2ccccc2F)C(=O)C12C(=O)N(CC(=O)O)c1ccc(Cl)cc12 (stereo not drawn) [Example 14, [15′-chloro-1-[2-(2-fluorophenyl)ethyl]-3-methyl-2,2′,5-trioxospiro[imidazolidine-4,3′-indol]-1′(2′H)-yl]acetic acid]",0.94,
"CN1C(=O)N(CCc2cccc(Cl)c2)C(=O)C12C(=O)N(CC(=O)O)c1ccc(Cl)cc12 (stereo not drawn) [Example 15, [15′-chloro-1-[2-(3-chlorophenyl)ethyl]-3-methyl-2,2′,5-trioxospiro[imidazolidine-4,3′-indol]-1′(2′H)-yl]acetic acid]",0.551,
